Measurements: patent US20020152038A1, “Selection method for aroma substances” (priority 2000, published 2002)
Read-outs that look alike come from different tables or passages of the source.

Assays:
[1] = Headspace above the lemonade, SPME, relative partition parameters; assay type: physicochemical
Method: (§1) The procedure is analogous in all examples.
The example reflects the taste impression which is perceived from via the olfactory epithelium, when enjoying a lemonade drink. The mixture of 39 odorants is incorporated into the above-mentioned lemonade drink (1) in an amount of 0.05%. 50 g of the lemonade drink are transferred to a 100 ml Erlenmeyer flask sealed with a septum and left to stand for 2 h at 35° C. with gentle stirring. The headspace above the lemonade is extracted using a SPME over 15 min. […] The analytical results are then used mathematically as described above.

[2] = according to COSMO-RS correlation
[3] = according to COSMO-RS correlation; remark: listed apart in the source
[4] = Headspace above the milkshake, SPME-GC, relative partition parameters; assay type: physicochemical
Method: as §1
The example reflects the taste impression which is perceived via the olfactory epithelium, when enjoying a milkshake. The milkshake is prepared as is generally customary. The mixture of 39 aroma substances is incorporated into the abovementioned milk product (1) in an amount of 0.2%. 50 g of this mixture are transferred to a 100 ml Erlenmeyer flask sealed with a septum and left to stand for 2 h at 35° C. with gentle stirring. The headspace above the mixture is extracted over 15 min using solid phase microextraction (SPME). The SPME needle is desorbed in a GC injector, and a gas chromatogram is recorded. […] The analytical results are then used mathematically as described above.

[5] = headspace vs lemonade, 0.05% odorant mixture, 2 h at 35° C., SPME 15 min
[6] = headspace vs milkshake, 0.2% aroma mixture, 2 h at 35° C., SPME 15 min

Compound | Activity (logarithmic partition parameter above lemonade) [1, 5] | Differences (Activity minus Prediction, milkshake) [2] | Differences (Activity minus Prediction, lemonade) [3] | Activity (logarithmic partition parameter above a milkshake) [4, 6] | Activity (logarithmic partition parameter above lemonade) [1] | Activity (logarithmic partition parameter above a milkshake) [4]
CC(=O)O[C@@H]1C[C@H]2CC[C@]1(C)C2(C)C (racemic) [Isobornyl acetate] | 0.994 | 0.480 | 0.587 | 0.707 | – | –
CC(=O)OCc1ccccc1 [Benzyl acetate] | 0.086 | 0.515 | 0.552 | 0.306 | – | –
OCc1ccccc1 [Benzyl alcohol] | −1.955 | −0.391 | −0.783 | −0.819 | – | –
O=C(OCc1ccccc1)c1ccccc1O [Benzyl salicylate] | −3.037 | −1.057 | −0.340 | −3.313 | – | –
C=C1CCC2CC1C2(C)C (stereo not drawn) [Beta-Pinene] | 0.485 | −0.082 | −0.189 | 1.029 | – | –
C=C1C2CCC(C2)C1(C)C (centres unmarked) [Camphene] | 0.465 | −0.169 | −0.226 | 0.985 | – | –
C[C@@H]1CC[C@H]2C(C)(C)[C@H]3C[C@@]12CC[C@@]3(C)O [Cedrol] | −0.895 | −0.025 | 0.196 | −1.077 | – | –
CC(=O)O[C@]1(C)CC[C@@]23C[C@@H]1C(C)(C)[C@@H]2CC[C@H]3C [Cedryl acetate] | – | – | – | – | −1.653 | −1.690
CC(C)=CCCC(C)CCO (centres unmarked) [Citronellol] | 0.044 | 0.138 | 0.207 | 0.199 | – | –
O=c1ccc2ccccc2o1 [Coumarin] | – | 0.244 | 0.162 | – | – | –
CC(=O)OC(C)(C)Cc1ccccc1 [DMBCA, dimethylbenzylcarbinyl acetate] | 0.523 | 0.537 | 0.898 | 0.378 | – | –
CCOC(=O)c1ccccc1C(=O)OCC [Diethyl phthalate] | −1.895 | −0.553 | −1.693 | −1.607 | – | –
C=CC(C)CCCC(C)(C)O (centres unmarked) [Dihydromyrcenol] | 0.334 | 0.135 | 0.513 | 0.432 | – | –
C=CCc1ccc(O)c(OC)c1 [Eugenol] | −0.841 | 0.528 | 0.454 | −0.557 | – | –
CC(C)=CCC/C(C)=C/CO [Geraniol] | −0.413 | – | – | −0.053 | – | –
CCCCCC/C(C=O)=C\c1ccccc1 [Hexylcinnamaldehyde, α] | −1.911 | −0.674 | −0.710 | −1.949 | – | –
CC(CC=O)CCCC(C)(C)O (centres unmarked) [Hydroxycitronellal] | −1.879 | −1.369 | −1.868 | −1.679 | – | –
CC(=O)/C=C/C1C(C)=CCCC1(C)C (stereo not drawn) [Ionone, α, Ionone, alpha] | 0.024 | 0.158 | −0.060 | −0.001 | – | –
CC(=O)/C=C/C1=C(C)CCCC1(C)C [Ionone, β, Ionone, beta] | −0.061 | 0.047 | 0.072 | −0.154 | – | –
CC(C)CCOC(=O)c1ccccc1O [Isoamyl salicylate] | −0.462 | 0.215 | 0.201 | −0.528 | – | –
CC(C=O)Cc1ccc(C(C)(C)C)cc1 (centres unmarked) [Lilial] | −0.656 | 0.135 | 0.074 | −0.690 | – | –
C=C(C)[C@H]1CC=C(C)CC1 [Limonene D] | 0.925 | −0.090 | 0.072 | 1.088 | – | –
C=CC(C)(O)CCC=C(C)C (centres unmarked) [Linalool] | 0.141 | −0.231 | 0.246 | 0.225 | – | –
OCCc1ccccc1 [PEA, phenylethyl alcohol] | 0.001 | 0.225 | 0.272 | 0.188 | – | –
CC(=O)OCC=C(C)C [Prenyl acetate] | 0.151 | −0.864 | −1.038 | 0.413 | – | –
CC(=O)OC(C)c1ccccc1 (centres unmarked) [Styrolyl acetate] | 0.312 | 0.554 | 0.641 | 0.402 | – | –
CC(=O)OC(C)(C)C1CC=C(C)CC1 (centres unmarked) [Terpinyl acetate] | – | – | – | – | 0.644 | 0.418
CC1=CCC2CC1C2(C)C (stereo not drawn) [alpha-Pinene] | 0.363 | 0.067 | −0.110 | 1.078 | – | –
CC1=CCC(C(C)C)=CC1 [gamma-Terpinene] | 1.032 | −0.004 | 0.411 | 1.064 | – | –
Caryophyllene | – | – | – | – | 0.827 | 1.132
